Reference: EP0059683A2, “7-Acylamido-3-cephem-4-carboxylic acids, process for their preparation, pharmaceutical compositions containing them and their use” (CIBA-GEIGY AG, priority 1981, dated 1982)
In brackets after ≈: the same amount, converted by molar mass.

Assays:
[1] = tested on: Escherichia coli 205; assay: Antibiotic activity in vitro, agar dilution method in DST agar (MIC); assay type: cell-based; conditions: for MIC: Escherichia coli, 205
Excerpt: (§1) A. Die antibiotische Aktivität der Testverbindungen in vitro wurde durch die Agarverdünnungsmethode nach Ericsson, H.M., und Sherris, S.C., 1971, Acta Path. Microb. Scand. Section B, Suppl. No. 217, Bd. 1-90, in DST Agar ermittelt. Die gefundenen, das Wachstum der Testorganismen noch hemmenden Minimalkonzentrationen (MIC = minimum inhibiting concentrations) werden in Mikrogramm pro Milliliter […] für die geprüften Verbindungen in der Tabelle 1 angegeben.

[2] = tested on: Klebsiella pneumoniae 327; assay: as above; assay type: cell-based; conditions: for MIC: Klebsiella pneumoniae, 327
Excerpt: as §1

[3] = tested on: Pseudomonas aeruginosa 799/61; assay: as above; assay type: cell-based; conditions: for MIC: Pseudomonas aeruginosa, 799/61
Excerpt: as §1

[4] = tested on: Salmonella typhimurium 277; assay: as above; assay type: cell-based; conditions: for MIC: Salmonella enterica, TYPHIMURIUM
Excerpt: as §1

[5] = tested on: Escherichia coli 205; assay: Chemotherapeutic efficacy in vivo against systemic infection in mice (ED50); conditions: s.c., female SPF MF2 mice; for ED50: Escherichia coli, 205, sc
Excerpt: (§2) B. Die chemotherapeutische Wirksamkeit in vivo gegen systemische Infektionen in weiblichen SPF, MF2 Mäusen wurde nach der Methode von Zak., 0., et al., 1979, Drugs Exptl. Clin. Res. 5, 45-59, ermittelt. Die gefundenen ED50-Werte in Milligramm Substanz pro Kilogramm Maus (mg/kg) für eine Anzahl von Mikroorganismen werden für die oral (p.o.) oder subcutan (s.c.) applizierten Testverbindungen in der Tabelle 2 angegeben.

[6] = tested on: Proteus morganii 2359; assay: as above; conditions: s.c., female SPF MF2 mice; for ED50: Morganella morganii, 2359, sc
Excerpt: as §2

[7] = tested on: Staphylococcus anvens 10B; assay: as above; conditions: female SPF MF2 mice; for ED50: Staphylococcus, 10B, sc
Excerpt: as §2

Structure (SMILES)	MIC [1] [µg/mL]	MIC [2] [µg/mL]	MIC [3] [µg/mL]	MIC [4] [µg/mL]	ED50 [5] [mg/kg]	ED50 [6] [mg/kg]	ED50 [7] [mg/kg]	MIC Escherichia coli 205 [1]	MIC Klebsiella pneumoniae 327 [2]	MIC Pseudomonas aeruginosa 799/61 [3]	MIC Salmonella typhimurium 277 [4]	ED50 Escherichia coli 205 [5] [mg/kg]	ED50 Proteus morganii 2359 [6] [mg/kg]	ED50 Staphylococcus anvens 10B ([7]; s.c.) [mg/kg]
NC(=O)c1cc[n+](CC2=C(C(=O)[O-])N3C(=O)[C@@H](NC(=O)C(NC(=O)OC[C@@H](N)C(=O)O)c4csc(N)n4)[C@H]3SC2)cc1 (stereo partly drawn) [Testverbindung 26]	0.2 (≈ 0.322 µM)	0.5 (≈ 0.806 µM)	0.5 (≈ 0.806 µM)	0.2 (≈ 0.322 µM)	9	10	15							
CC(=O)OCC1=C(C(=O)O)N2C(=O)[C@@H](NC(=O)CCCNC(=O)OC[C@@H](N)C(=O)O)[C@H]2SC1 [Testverbindung 29]	32 (≈ 65.5 µM)	4 (≈ 8.19 µM)	1 (≈ 2.05 µM)	2 (≈ 4.09 µM)	7	75	> 30							
CO[C@@]1(NC(=O)CCCNC(=O)OC[C@@H](N)C(=O)O)C(=O)N2C(C(=O)O)=C(COC(C)=O)CS[C@@H]21 [Testverbindung 27]	1 (≈ 1.93 µM)	1 (≈ 1.93 µM)	0.5 (≈ 0.964 µM)	1 (≈ 1.93 µM)	14	8	> 30							
Cn1nnnc1SCC1=C(C(=O)O)N2C(=O)[C@@H](NC(=O)CCCNC(=O)OC[C@@H](N)C(=O)O)[C@H]2SC1 [Testverbindung 30]	2 (≈ 3.67 µM)	0.5 (≈ 0.918 µM)	0.5 (≈ 0.918 µM)	0.5 (≈ 0.918 µM)	1.7	10	> 30							
CO[C@@]1(NC(=O)CCCNC(=O)OC[C@@H](N)C(=O)O)C(=O)N2C(C(=O)O)=C(CSc3nnnn3C)CS[C@@H]21 [Testverbindung 28]	1 (≈ 1.74 µM)	0.5 (≈ 0.87 µM)	0.2 (≈ 0.348 µM)	0.5 (≈ 0.87 µM)	4	5	> 30							
NC(=O)c1cc[n+](CC2=C(C(=O)[O-])N3C(=O)C(NC(=O)C(NC(=O)OC[C@@H](N)C(=O)O)c4csc(N)n4)C3SC2)cc1 (stereo partly drawn) [Testverbindung 26, 3-(4-Carbamoylpyridiniomethyl)-7β-[(2R,S)-2-((2R)-2-amino-2-car-boxyäthoxycarbonylamino)-2-(2-aminothiazol-4-yl)-acetamido]-3-cephem-4-carboxylat]								0,1 µg/ml	0,1 µg/ml	0,5 µg/ml	0,1 µg/ml	1	70	>30
